Test results from ChEMBL document CHEMBL1201862, “PubChem BioAssay data set” (2004).
Active and inactive are the calls of the source.

Tests used:
[1] = HIV-1 Vif–A3G interaction blockers – biochemical, TR-FRET, GST-Vif 1-94, biotin-A3G peptide, dose response retest, primary screen (AID 1117319); format: functional;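 note: TR-FRET signal of purified GST-Vif binding a biotinylated A3G peptide; inhibitors lower the FRET signal by blocking Vif and A3G binding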
[2] = target: Protein Tat (Human immunodeficiency virus type 1 group M subtype B (isolate HXB2)(HIV-1), UniProt P04608); format: functional;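 note: tat binding to TAR RNA read out by fluorescence polarization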
[3] = target: Peroxisome proliferator-activated receptor gamma/Nuclear receptor corepressor 2 (Homo sapiens, UniProt P37231+Q9Y618); assay: Counterscreen for NR2E3 inverse agonists: TR-FRET-based biochemical high throughput dose response assay to identify inverse agonists of the interaction between peroxisome proliferator-activated receptor gamma (PPARg) and nuclear receptor co-repressor 2 (NCOR2).; format: functional
[4] = target: Photoreceptor-specific nuclear receptor (Homo sapiens, UniProt Q9Y5X4); assay: ligands suppressing NR2E3 nuclear receptor activity – biochemical, TR-FRET, dose response (AID 463256); format: functional
[5] = Potency on glucagon-like peptide 1 release, dose-response in NCI-H716 cell line, half maximal inhibitory concentration (AID 1117344); format: functional, cell-based
[6] = target: Large T antigen (Simian virus 40, UniProt P03070); format: functional, Betapolyomavirus macacae;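 note: Confirmatory-stage PubChem screen for compounds that inhibit SV40 T antigen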
[7] = glucagon-like peptide-1 release potency in STC-1, concentration-response, half-maximal inhibitory concentration in the STC-1 line (AID 1117345); format: functional, cell-based
[8] = M. tuberculosis H37Rv growth inhibitors, H37Rv strain (AID 1626); format: functional
[9] = target: Bcl-2-like protein 1 (Homo sapiens, UniProt Q07817); assay: blockers of BCLXL peptide binding – biochemical, fluorescence polarization, 1536-well, selectivity assay for MCL1 inhibitor project, dose response (AID 2218)
[10] = target: Induced myeloid leukemia cell differentiation protein Mcl-1 (Homo sapiens, UniProt Q07820); assay: blockers of MCL1 binding to BIM peptide – biochemical, fluorescence polarization, BIM-BH3 peptide, 1536-well, dose response (AID 2217)
[11] = target: T1, Sphingosine 1-phosphate receptor 2 (Homo sapiens, UniProt O95136); assay: Dose Response Cell Based Assay for Agonists of the S1P2 Receptor of Purchased Analogues. [Related pubchem assays: 729, 843, 854, 736 ]; format: functional
[12] = target: 5-hydroxytryptamine receptor 1A (Homo sapiens, UniProt P08908); format: functional
[13] = target: Genome polyprotein (Hepatitis C virus, UniProt Q2Q167); assay: disruption of hepatitis C core self-association – biochemical, TR-FRET, dose response (AID 2159); set-up: species or system Hepacivirus hominis;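 note: blocks dimerization of HCV core protein measured by TR-FRET between tagged core106 pairs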
[14] = growth inhibition of PfATP4-mutant resistant parasites – NITD609-resistant line, SYBR Green, dry powder, dose response (AID 1159571); format: functional, cell-based;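 note: parasites synchronized at ring stage by sorbitol before testing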
[15] = growth inhibition of yeast DHODH-expressing 3D7 parasites – SYBR Green, dry powder samples, dose response (AID 1159570); format: functional, cell-based;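 note: parasite growth measured after 72 hours of compound exposure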
[16] = toxicity to human HepG2 hepatoma cells – cell-based, plate reader, dry powder samples, cytotoxicity control, dose response (AID 1159569); format: functional;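 note: inhibitor potency with signal falling toward the positive control level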
[17] = P. falciparum Dd2 growth inhibitors, dose response, SYBR Green, cherry-picked samples (AID 1159567); format: functional, cell-based
[18] = Dd2 malaria parasite growth inhibition potency – SYBR Green, dry powder samples, dose response (AID 1159566); format: functional, cell-based;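 note: potency for growth inhibition with lower SYBR green DNA signal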
[19] = Plasmodium falciparum Dd2 Sybr green parasite growth Measured in Cell-Based and Microorganism Combination System Using Plate Reader - 2153-01_Inhibitor_Dose_DryPowder_Activity_Set3.; format: functional
[20] = target: Prothrombin (Homo sapiens, UniProt P00734); assay: Thrombin 1536 HTS Dose Response Confirmation. [Related pubchem assays: 1046 (Thrombin 1536 HTS; hits were confirmed in this assay)]; format: functional
[21] = target: Estrogen receptor beta (Homo sapiens, UniProt Q92731);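 note: recombinant ER-beta bound to coactivator SRC1 peptide in presence of estradiol agonist; inhibitors block coactivator peptide binding and lower the FRET signal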
[22] = target: NADPH oxidase 1 (Homo sapiens, UniProt Q9Y5S8); assay: Late-stage luminescence-based cell-based dose response assay to identify inhibitors of NADPH oxidase 1 (NOX1): Synthesized analogs 2.; format: functional
[23] = target: T1, Sphingosine 1-phosphate receptor 2; assay: Dose Response Cell Based Assay for Antagonists of the S1P2 Receptor. [Related pubchem assays: 856, 736 ]; format: functional
[24] = viability loss in THP-1 monocytes – THP-1 cells, cytotoxicity control for Vif-APOBEC3G degradation inhibitor project, dose response (AID 1117359); format: functional; conditions: THP-1
[25] = target: Glutathione-S-transferase (Schistosoma japonicum, UniProt Q26513); assay: GST-antibody interaction or FRET quenching – biochemical, TR-FRET, artefact control for Vif-APOBEC3G degradation inhibitor project, dose response (AID 1117362); format: functional
[26] = target: Nonstructural protein 1 (Influenza A virus, UniProt Q194T2); format: functional, Influenza A virus (A/California/07/2009(H1N1))
[27] = target: Ras and Rab interactor 1/Tyrosine-protein kinase ABL1 (Homo sapiens, UniProt P00519+Q13671); format: functional;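 note: biochemical TR-FRET dose-response test measuring inhibition of binding between Rin1 and Abl proteins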
[28] = target: T2, E3 ubiquitin-protein ligase XIAP (Homo sapiens, UniProt P98170); assay: small molecules displacing peptide from XIAP – biochemical, IAP family, fluorescence polarization (AID 1018); format: functional
[29] = target: T2, E3 ubiquitin-protein ligase XIAP; assay: Counter Screen using XIAP-Bir3 for Chemical Antagonists of Bir1/2 domains of IAP-family anti-apoptotic proteins. [Related pubchem assays (depositor defined):AID1018, AID1449, AID1514, AID1638, AID1749, AID1750, AID488957, AID488963]
[30] = target: T3, Leucine aminopeptidase (Plasmodium falciparum 3D7, UniProt Q8IL11); assay: P. falciparum M17LAP inhibitors, primary screen, biochemical, fluorogenic H-Leu-NHMec substrate, 1536-well (AID 1619); format: functional
T3 sequence (Q8IL11 whole entry): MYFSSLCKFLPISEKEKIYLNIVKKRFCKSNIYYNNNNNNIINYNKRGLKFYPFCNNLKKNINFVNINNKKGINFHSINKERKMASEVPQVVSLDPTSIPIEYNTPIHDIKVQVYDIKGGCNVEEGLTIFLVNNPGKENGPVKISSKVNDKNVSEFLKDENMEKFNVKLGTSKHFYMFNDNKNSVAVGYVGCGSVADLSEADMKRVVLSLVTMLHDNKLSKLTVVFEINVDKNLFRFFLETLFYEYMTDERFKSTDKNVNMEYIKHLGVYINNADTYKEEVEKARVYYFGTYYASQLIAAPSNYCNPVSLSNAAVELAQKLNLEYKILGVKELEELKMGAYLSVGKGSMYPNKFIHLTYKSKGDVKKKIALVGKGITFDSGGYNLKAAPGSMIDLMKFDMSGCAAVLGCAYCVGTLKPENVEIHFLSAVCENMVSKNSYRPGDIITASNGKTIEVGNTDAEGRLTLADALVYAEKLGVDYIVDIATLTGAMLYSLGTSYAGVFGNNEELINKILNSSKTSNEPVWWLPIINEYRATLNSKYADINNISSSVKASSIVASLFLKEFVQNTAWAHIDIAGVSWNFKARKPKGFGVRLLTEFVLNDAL

[31] = target: T4, Probable nicotinate-nucleotide adenylyltransferase (Staphylococcus aureus (strain N315), UniProt P65502); format: functional, Staphylococcus aureus subsp. aureus N315; conditions: read-out: IC50_Mean;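 for IC50 Mean: confirmatory dose-response retesting of NadD inhibitor hits first found in an ultra-high-throughput screen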
[32] = target: Aspartyl aminopeptidase (Plasmodium falciparum 3D7, UniProt Q8I2J3); assay: Counterscreen for inhibitors of M1 and M17 aminopeptidases: QFRET-based biochemical high throughput dose response assay for inhibitors of the Plasmodium falciparum M18 Aspartyl Aminopeptidase (PFM18AAP). [Related PubChem assays: 1619 (Screening assay (M17LAP inhibitors).), 1445 (Screening assay (M1AAP inhibitors).)]
[33] = target: Procathepsin L (Homo sapiens, UniProt P07711); assay: CTSL1 protease inhibition – biochemical, QFRET, 1536-well, counter-screen for M1/M17 aminopeptidase inhibitor project, dose response (AID 2214)
[34] = target: T4, Probable nicotinate-nucleotide adenylyltransferase; format: functional, Staphylococcus aureus subsp. aureus N315
[35] = target: Cytochrome P450 2C19 (Homo sapiens, UniProt P33261); assay: Cytochrome panel assay with activity outcomes. Panel member name: p450-cyp2c19 Compounds with AC50 equal or less than 10 uM are considered active; format: functional; conditions: read-out: AC50
[36] = target: Mitogen-activated protein kinase 10 (Homo sapiens, UniProt P53779); assay: Dose response biochemical screening assay for inhibitors of c-Jun N-Terminal Kinase 3 (JNK3). [Related pubchem assays: 746 ]
[37] = target: Cytochrome P450 2C9 (Homo sapiens, UniProt P11712)
Cytochrome P450 2C9, sequence (P11712 whole entry): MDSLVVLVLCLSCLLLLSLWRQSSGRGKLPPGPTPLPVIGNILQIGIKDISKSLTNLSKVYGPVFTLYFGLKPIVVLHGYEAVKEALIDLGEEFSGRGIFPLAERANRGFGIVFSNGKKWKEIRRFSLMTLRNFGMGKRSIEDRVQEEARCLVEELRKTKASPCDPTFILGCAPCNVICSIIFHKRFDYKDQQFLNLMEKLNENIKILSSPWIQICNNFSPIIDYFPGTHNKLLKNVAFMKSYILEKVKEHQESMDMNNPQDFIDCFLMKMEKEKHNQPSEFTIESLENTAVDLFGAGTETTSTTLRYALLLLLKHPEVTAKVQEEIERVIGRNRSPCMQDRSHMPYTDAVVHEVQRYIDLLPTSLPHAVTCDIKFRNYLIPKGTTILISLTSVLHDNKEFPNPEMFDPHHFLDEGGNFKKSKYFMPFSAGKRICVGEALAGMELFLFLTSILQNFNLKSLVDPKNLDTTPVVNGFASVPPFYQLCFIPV

T2 sequence (P98170 whole entry): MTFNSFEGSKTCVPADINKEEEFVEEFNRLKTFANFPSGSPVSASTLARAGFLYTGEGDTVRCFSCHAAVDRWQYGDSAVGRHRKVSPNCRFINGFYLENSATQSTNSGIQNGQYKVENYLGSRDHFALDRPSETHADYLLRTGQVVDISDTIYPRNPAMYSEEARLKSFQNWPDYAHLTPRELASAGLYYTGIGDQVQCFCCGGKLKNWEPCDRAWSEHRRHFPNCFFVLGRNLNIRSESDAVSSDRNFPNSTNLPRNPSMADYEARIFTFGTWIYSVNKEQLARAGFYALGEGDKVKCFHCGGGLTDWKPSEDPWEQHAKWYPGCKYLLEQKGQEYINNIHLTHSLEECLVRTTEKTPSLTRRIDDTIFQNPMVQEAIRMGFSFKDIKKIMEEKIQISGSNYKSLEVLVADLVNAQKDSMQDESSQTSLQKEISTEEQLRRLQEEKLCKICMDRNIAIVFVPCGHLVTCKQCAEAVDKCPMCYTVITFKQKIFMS
T1 sequence (O95136 whole entry): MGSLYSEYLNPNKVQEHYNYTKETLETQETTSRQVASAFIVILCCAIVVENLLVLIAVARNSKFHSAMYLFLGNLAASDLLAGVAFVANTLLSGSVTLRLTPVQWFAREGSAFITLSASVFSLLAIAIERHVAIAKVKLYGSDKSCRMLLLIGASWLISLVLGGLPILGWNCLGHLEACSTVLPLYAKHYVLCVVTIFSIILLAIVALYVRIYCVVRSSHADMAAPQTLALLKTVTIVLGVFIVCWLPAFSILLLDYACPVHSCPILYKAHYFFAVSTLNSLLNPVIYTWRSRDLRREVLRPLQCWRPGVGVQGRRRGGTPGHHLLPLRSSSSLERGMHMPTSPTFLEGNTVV
T4 sequence (P65502 whole entry): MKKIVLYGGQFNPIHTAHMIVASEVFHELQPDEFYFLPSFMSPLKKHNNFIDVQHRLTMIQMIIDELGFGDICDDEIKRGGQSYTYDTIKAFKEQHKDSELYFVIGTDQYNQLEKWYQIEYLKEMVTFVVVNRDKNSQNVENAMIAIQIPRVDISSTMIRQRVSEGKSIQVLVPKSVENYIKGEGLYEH
Procathepsin L, sequence (P07711 whole entry): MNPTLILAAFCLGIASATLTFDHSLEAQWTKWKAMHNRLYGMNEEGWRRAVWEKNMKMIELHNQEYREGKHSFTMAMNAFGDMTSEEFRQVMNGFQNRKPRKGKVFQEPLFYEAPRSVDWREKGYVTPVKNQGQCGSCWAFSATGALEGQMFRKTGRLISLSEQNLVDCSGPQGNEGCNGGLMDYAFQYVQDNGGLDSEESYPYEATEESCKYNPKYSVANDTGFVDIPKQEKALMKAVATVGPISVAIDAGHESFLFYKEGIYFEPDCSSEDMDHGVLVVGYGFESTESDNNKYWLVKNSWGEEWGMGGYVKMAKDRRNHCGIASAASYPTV
Glutathione-S-transferase, sequence (Q26513 whole entry): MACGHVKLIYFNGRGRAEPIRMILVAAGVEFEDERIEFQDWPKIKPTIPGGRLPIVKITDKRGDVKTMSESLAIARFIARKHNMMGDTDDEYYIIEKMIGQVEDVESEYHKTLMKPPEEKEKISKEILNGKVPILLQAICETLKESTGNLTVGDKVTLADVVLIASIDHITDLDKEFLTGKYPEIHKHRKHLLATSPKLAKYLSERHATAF
Photoreceptor-specific nuclear receptor, sequence (Q9Y5X4 whole entry): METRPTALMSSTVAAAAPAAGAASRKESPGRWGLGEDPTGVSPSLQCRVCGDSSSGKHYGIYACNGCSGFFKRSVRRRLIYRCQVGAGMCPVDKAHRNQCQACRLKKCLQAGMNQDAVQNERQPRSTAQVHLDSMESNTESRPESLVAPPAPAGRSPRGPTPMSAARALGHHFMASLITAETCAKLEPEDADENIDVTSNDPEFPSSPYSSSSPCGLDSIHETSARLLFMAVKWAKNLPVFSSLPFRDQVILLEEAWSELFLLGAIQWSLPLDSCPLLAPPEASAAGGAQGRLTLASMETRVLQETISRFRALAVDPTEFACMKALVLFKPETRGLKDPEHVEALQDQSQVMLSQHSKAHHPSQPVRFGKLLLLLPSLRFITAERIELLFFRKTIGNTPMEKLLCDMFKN
Mitogen-activated protein kinase 10, sequence (P53779 whole entry): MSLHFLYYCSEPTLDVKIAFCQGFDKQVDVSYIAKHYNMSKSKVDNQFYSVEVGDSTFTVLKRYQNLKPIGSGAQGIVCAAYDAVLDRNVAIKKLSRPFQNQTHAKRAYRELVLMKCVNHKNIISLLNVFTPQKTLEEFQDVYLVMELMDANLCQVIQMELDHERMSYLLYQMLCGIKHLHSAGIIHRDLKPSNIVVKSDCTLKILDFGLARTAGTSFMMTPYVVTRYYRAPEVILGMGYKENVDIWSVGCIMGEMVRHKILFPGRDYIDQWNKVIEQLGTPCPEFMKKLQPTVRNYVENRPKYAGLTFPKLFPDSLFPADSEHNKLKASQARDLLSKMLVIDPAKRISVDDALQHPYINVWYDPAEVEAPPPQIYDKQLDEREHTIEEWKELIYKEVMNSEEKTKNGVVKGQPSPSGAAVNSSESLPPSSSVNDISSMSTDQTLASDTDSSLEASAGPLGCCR
Estrogen receptor beta, sequence (Q92731 whole entry): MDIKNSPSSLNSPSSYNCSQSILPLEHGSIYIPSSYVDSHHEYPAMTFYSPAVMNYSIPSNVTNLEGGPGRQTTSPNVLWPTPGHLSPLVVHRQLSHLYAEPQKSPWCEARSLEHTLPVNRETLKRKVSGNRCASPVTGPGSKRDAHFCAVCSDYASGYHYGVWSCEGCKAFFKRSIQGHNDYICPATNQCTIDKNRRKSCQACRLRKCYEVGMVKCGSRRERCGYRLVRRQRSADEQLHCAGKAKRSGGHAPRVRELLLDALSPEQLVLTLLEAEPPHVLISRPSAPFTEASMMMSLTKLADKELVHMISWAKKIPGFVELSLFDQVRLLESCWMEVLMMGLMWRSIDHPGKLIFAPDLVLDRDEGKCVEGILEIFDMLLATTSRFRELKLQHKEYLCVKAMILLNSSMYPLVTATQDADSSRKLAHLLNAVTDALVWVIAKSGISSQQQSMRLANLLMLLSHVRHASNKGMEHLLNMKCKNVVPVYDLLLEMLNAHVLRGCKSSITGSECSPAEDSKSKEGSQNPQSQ
Large T antigen, sequence (P03070 whole entry): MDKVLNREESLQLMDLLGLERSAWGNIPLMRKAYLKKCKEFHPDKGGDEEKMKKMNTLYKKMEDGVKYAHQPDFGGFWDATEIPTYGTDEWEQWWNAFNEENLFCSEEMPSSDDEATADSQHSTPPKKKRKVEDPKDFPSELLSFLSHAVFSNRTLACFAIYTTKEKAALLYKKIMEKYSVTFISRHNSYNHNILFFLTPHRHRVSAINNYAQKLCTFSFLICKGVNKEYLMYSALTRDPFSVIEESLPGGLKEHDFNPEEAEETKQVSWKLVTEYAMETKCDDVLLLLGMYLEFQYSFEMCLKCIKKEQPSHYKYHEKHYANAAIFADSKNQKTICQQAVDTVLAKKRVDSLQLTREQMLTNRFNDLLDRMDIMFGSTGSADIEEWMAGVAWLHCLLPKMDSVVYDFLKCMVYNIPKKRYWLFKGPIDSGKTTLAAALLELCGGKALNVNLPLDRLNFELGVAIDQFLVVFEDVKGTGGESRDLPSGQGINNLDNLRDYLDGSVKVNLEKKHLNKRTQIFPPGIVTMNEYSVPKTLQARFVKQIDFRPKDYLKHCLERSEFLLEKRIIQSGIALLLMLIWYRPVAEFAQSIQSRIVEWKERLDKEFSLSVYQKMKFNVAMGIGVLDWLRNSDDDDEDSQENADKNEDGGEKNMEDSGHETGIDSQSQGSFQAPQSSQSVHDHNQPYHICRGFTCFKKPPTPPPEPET
5-hydroxytryptamine receptor 1A, sequence (P08908 whole entry): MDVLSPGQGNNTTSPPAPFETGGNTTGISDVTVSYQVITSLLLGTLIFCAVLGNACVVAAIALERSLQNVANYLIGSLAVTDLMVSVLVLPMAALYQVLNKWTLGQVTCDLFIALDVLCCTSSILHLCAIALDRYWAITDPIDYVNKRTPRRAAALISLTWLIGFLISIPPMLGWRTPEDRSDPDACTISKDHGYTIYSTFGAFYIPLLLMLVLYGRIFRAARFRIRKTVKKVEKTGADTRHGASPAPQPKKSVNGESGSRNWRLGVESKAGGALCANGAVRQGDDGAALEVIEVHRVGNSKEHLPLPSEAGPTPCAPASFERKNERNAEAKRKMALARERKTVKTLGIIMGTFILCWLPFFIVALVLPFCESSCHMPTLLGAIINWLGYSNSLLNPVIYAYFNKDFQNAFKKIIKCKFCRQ
Genome polyprotein, sequence (Q2Q167 whole entry): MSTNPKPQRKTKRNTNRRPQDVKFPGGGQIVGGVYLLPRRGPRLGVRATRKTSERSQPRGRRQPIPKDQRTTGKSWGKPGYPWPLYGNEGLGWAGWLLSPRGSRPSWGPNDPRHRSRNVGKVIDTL
Protein Tat, sequence (P04608 whole entry): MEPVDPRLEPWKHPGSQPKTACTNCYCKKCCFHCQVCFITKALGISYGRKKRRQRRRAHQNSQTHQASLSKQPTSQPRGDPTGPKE

In the case of COc1ccc(-n2c(Cc3cccn3C)nnc2SCC(N)=O)cc1, the IC50 [1] is reported as > 100 µM (active) and the IC50 [2] is reported as > 100 µM (active).

With CN(C)c1ccc(C#Cc2ccc3cc(CCO)oc(=O)c3c2)cc1 the IC50 [3] was > 39.8 µM (not active) and the IC50 [4] was > 39.8 µM (not active).

With O=C1OC2(c3ccccc31)c1cc(I)c(O)c(I)c1Oc1c2cc(I)c(O)c1I [ERYTHROSINE] the IC50 [5] was > 40 µM (inactive), the IC50 [6] was 13 µM (active) and the IC50 [7] was 2.93 µM (active).

In the case of CCOc1ccc(NC(=O)N(C2CCCCC2)C2CCN(C(C)=O)CC2)cc1, the IC50 [8] is reported as > 100 µM (active).

With Clc1cccc(C2Nc3cccc4cccc(c34)N2)c1 the IC50 [9] was > 109 µM (not active) and the IC50 [10] was 28.6 µM (not active).

For Cc1ccc(C(=O)OCC(=O)c2cc(C)n(Cc3ccccc3)c2C)o1, the EC50 [11] was > 30 µM (not active).

For CCOC(=O)c1oc2ccccc2c1NC(=O)c1cc(OC)cc(OC)c1, the EC50 [12] was > 50 µM (not active).

With CCOC(=O)c1sc(NC(=S)NC(=O)C2CC2)cc1C the IC50 [13] was > 49.8 µM (not active).

For N#C[C@@H]1[C@H](c2ccc(C3=CCCC3)cc2)[C@@H](CO)N1C(=O)NC1CCCC1, the AC50 [14] was 0.694 µM (active), the AC50 [15] was 15.8 µM (active) and the AC50 [16] was 82 µM (active). For the same compound, the AC50 [17] was 0.615 µM (active), the AC50 [18] was 0.395 µM (active) and the AC50 [19] was 0.647 µM (active).

With NC(=Nc1nc2ccccc2o1)NC(=O)c1ccccc1NC(=O)c1ccccc1 the IC50 [20] was > 50 µM (inconclusive) and the IC50 [21] was > 50 µM (not active).

In the case of CN1c2ccccc2Sc2cc(NC(=O)CCl)ccc21, the IC50 [22] is reported as 0.653 µM (active).

For O=C(O)c1sc2cc(C(F)(F)F)cnc2c1-c1cccnc1, the IC50 [23] was > 30 µM (not active).

In the case of CCc1cccc(NC(=O)CCCCCC2NC(=O)NC2C)c1 (configuration not stated), the CC50 [24] is reported as > 40 µM (active), the IC50 [25] is reported as 9.93 µM (active) and the IC50 [26] is reported as 0.825 µM (active). For the same compound, the IC50 [27] was 0.00897 µM (active).

With CCCNC(=O)c1cc(SC)ccc1Cl the IC50 [28] was > 100 µM (not active) and the IC50 [29] was > 100 µM (inactive).

With Cc1ccc(Nc2nnc(SC/C(O)=C(\C#N)c3nc4ccccc4[nH]3)s2)c(C)c1 the IC50 [30] was 6.03 µM (active), the IC50 [31] was 21.4 µM (active) and the IC50 [32] was > 73.5 µM (not active). For the same compound, the IC50 [33] was > 59.6 µM (not active) and the IC50 [34] was 7.79 µM (active).

With Fc1ccc2nc3[nH]c4ccccc4c3nc2c1 the AC50 [35] was 20 µM (inconclusive), the IC50 [36] was 18.4 µM (not active) and the AC50 [37] was 10 µM (inconclusive).
